US5744621A, “Irreversible HIV protease inhibitors, intermediates, compositions and processes for the preparation thereof” (Lucky Limited., priority 1992, dated 1998)
Like-named read-outs stand apart in the source and are kept apart here.

Assays:
[1] = Cytotoxicity in H9 or Sup T1 cells (trypan blue dye exclusion); assay type: cell-based; conditions: human; concentration that causes death of cells by 50%; H9 or Sup T1 cells, 37° C; read-out: CT50 (the source's name)
Method: (§1) To determine the cytotoxicity of the compounds of the present invention, 0.1 μM to 100 μM of the novel compounds were added to H9 cell or Sup T1 cell and the mixture was cultured on a rpmi-1640 medium at 37° C. The medium was refreshed every 3 days and the extent of cell proliferation was observed using Hemacytometer according to the trypan blue dye exclusion technique which is well known in the art. CT50 (i.e., concentration that causes death of cells by 50%) was determined. For reference, AZT(Burrows-Wellcome), A-75925 (Abbott, C2 symmetric compound) and Ro-31-8959(F. Hofmann-La Roche) were used as control compounds.

HIV-1 protease = target: T1, HIV-1 protease (Human immunodeficiency virus type 1 group M subtype B, UniProt P04585); test: Assay for inhibitory effect on HIV protease (residual enzyme activity, HPLC of substrate cleavage); assay type: biochemical; conditions: pH 5.5; for Ki / kinact: HIV-1 protease 2.6 nM; for Ki: inhibition constant; for kinact: rate constant of covalent bond formation, read-out: kina (converted); for kinact/KI: second order rate constant, HIV-1 protease, read-out: kina /KI (converted)
T1 construct: 2.6 nM of HIV-1 protease
Summary of the method: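 HIV-1 protease (2.6 nM) incubated with inhibitor in 50 mM sodium acetate pH 5.5, 1 mM DTT, 1 mM EDTA, 0.75 M ammonium sulfate, 0.2 M NaCl, 0.1% NP40. Residual activity was sampled over time using 100 μM p-NO2-Phe undecapeptide substrate (KM 20 μM), HPLC, 280 nm. kobs came from ln(activity)-versus-time slope, and KI and kina from kinetic fitting.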

HIV-1 = test: Anti-viral activity: syncytium formation (Sup T1) or reverse transcriptase assay (H9); assay type: cell-based
Method: The anti-viral activity of the compounds of the present invention was determined by measuring the concentration of the compounds that inhibits the proliferation of HIV by 50%(IC50) through a survey for syncytium formation or reverse transcriptase assay.
1×10^5 cells of each of H9(ATCC HTB 176) and Sup T1 cell lines were added to the wells of a 24-well microtiter plate and various concentrations so the compounds of the present invention were added thereto. 200 TCID50 (200-fold of 50% tissue culture infection dose) of HIV-1 inoculum and rpmi-1640 medium(Sigma Chemical Co., U.S.A) were added successively to the wells and the plate was incubated at 37° C. In case of Sup T1, the number of syncytium formed was investigated after 3 to 9 days. IC50 of each compound was determined by measuring the concentration of inhibitor that can reduce the number of syncytium by 50% compared with those formed in the same condition without the inhibitor.
In case of H9, three-quarters(3/4) of the culture medium in volume was refreshed every 3 days; and 6 ml of the culture fluid was centrifuged at 1000 rpm for 10 minutes. To 5 ml of the resulting supernatant were added 2.5 ml of 30% polyethyleneglycol(PEG, M.W. 6000-8000) and 0.4M NaCl. The resulting solution was allowed to stand at 0° C. overnight to precipitate virus particles. The solution was centrifuged at 2000 rpm for 45 minutes, the supernatant was discarded therefrom and the precipitate was diluted with 20 μl of a reverse transcriptase suspension buffer(50 mM tris-HCl, pH 7.5, 1 mM dithiothreitol, 20% glycerol, 0.25M KCl and 0.25% Triton X-100). The resulting suspension was stored in an Effendorf tube at -70° C. until used. A procedure of freezing said virus suspension for 2 minutes in dry ice and thawing same at 37° C. for 2 minutes was repeated three times and the resulting suspension was centrifuged at 4° C. The resulting supernatant was used in carrying out the reverse transcriptase assay.
10 μl of the said viral suspension was added to a solution of: 10 μl of buffer solution(250 mM tris-HCl, pH 7.5, 37.5 mM MgCl2, 0.25% triton X-100), 1.2 μl of 200 mM dithiothreitol, 5 μl of 10 μM oligo(dT)-poly(A)(Boeringer Manheim, 12-18 oligomer), 1 μl(1 μCi) of ^3 H-TTP(Thymidinetri-phosphate) and 23.6 μl of water; and the resulting mixture was placed at 37° C. After 1 hour, the mixture was poured onto a WHATMAN DEB1 filter and the filter was washed three times with 5 ml of 2×SSC buffer solution(17.53 g of sodium chloride, 8.82 g of sodium citrate, pH 7.0, 1 liter of water) for about 10 minutes each time and twice with 95% ethanol for 10 seconds. The filter was put onto aluminium foil and dried with an infra-red lamp. The amount of radioactivity was counted using a liquid scintillation counter. IC50 of each compound was determined by measuring the concentration of inhibitor that can reduce the activity of reverse transcriptase by 50%.

H9 cell or Sup T1 cell = test: Cytotoxicity in H9 or Sup T1 cells (trypan blue dye exclusion); assay type: cell-based; conditions: human, h9 or sup t1 cells
Method: as §1

[2] = Human immunodeficiency virus 1, SUP-T1

Row | SMILES | CC50 [1] | Ki (HIV-1 protease) | kinact (HIV-1 protease) | kinact/KI (HIV-1 protease) | IC50 (HIV-1; [2]) | CC50 (H9 cell or Sup T1 cell) | IC50 (HIV-1; inhibits proliferation of HIV by 50%, Sup T1 syncytium or H9 reverse transcriptase assay, 37° C, read-out: IC50)
1 | CC[C@H](C)[C@H](NC(=O)C[C@@H]1O[C@@H]1[C@H](Cc1ccccc1)NC(=O)[C@H](CC(N)=O)NC(=O)c1ccc2ccccc2n1)C(=O)NCc1ccccn1 [compound 9] | > 100000 nM | 55 nM | 0.00183 s⁻¹ | 33300 M⁻¹ s⁻¹ | 8000 nM | – | –
2 | CC(C)[C@@H](NC(=O)C[C@@H]1O[C@@H]1[C@H](Cc1ccccc1)NC(=O)[C@H](CC(N)=O)NC(=O)c1ccc2ccccc2n1)c1ccccc1 [compound 43] | > 100000 nM | 3.2 nM | 0.0283 s⁻¹ | 88300 M⁻¹ s⁻¹ | 50 nM | – | –
3 | CC(C)[C@H](CCc1ccccc1)NC(=O)C[C@@H]1O[C@@H]1[C@H](Cc1ccccc1)NC(=O)[C@H](CC(N)=O)NC(=O)c1ccc2ccccc2n1 [compound 44] | > 100000 nM | 11 nM | 0.0417 s⁻¹ | 3.83e+06 M⁻¹ s⁻¹ | 300 nM | – | –
4 | NC(=O)C[C@H](NC(=O)OCc1ccccc1)C(=O)N[C@@H](Cc1ccccc1)[C@H]1O[C@H]1CCc1ccccc1 [compound 52, 2-L-(N-benzyloxycarbonyl-L-asparaginyl)amino-(3R,4S)-epoxy-1,6-diphenylhexane] | > 100000 nM | 100 nM | 0.0005 s⁻¹ | 5000 M⁻¹ s⁻¹ | 700 to 1200 nM | – | –
5 | COC(=O)C(Cc1ccccc1)NC(=O)C(CCC(N)=O)NC(=O)C[C@@H]1O[C@@H]1[C@H](Cc1ccccc1)NC(=O)[C@H](CC(N)=O)NC(=O)c1ccc2ccccc2n1 (some centres unmarked) [compound 14] | > 100000 nM | 350 nM | 0.00417 s⁻¹ | 11800 M⁻¹ s⁻¹ | 9000 nM | – | –
6 | C[C@@H](O)[C@H](NC(=O)OCc1ccccc1)C(=O)NC[C@@H]1O[C@@H]1[C@H](Cc1ccccc1)NC(=O)[C@@H](NC(=O)OCc1ccccc1)[C@@H](C)O [compound 73] | > 100000 nM | > 10000 nM | – | – | 5000 nM | – | –
7 | CC(C)[C@H](NC(=O)OCc1ccccc1)C(=O)N[C@@H](Cc1ccccc1)[C@@H](O)[C@H](O)[C@H](Cc1ccccc1)NC(=O)[C@@H](NC(=O)OCc1ccccc1)C(C)C [A-75925, reference compound] | – | – | – | – | – | > 100000 nM | 250 nM
8 | CC(C)[C@H](Cc1ccccc1)NC(=O)C[C@@H]1O[C@@H]1[C@H](Cc1ccccc1)NC(=O)[C@H](CC(N)=O)NC(=O)c1ccc2ccccc2n1 [compound 42, [[(5S)-[N-(2-quinolinecarbonyl)-L-asparaginyl]amino]-(4R,3S)-epoxy-6-phenyl-1-hexanoyl]-[(2S)-[1-phenyl-3-methyl]butyl]amide] | > 100000 nM | 0.8 nM | 0.0433 s⁻¹ | 5.5e+07 M⁻¹ s⁻¹ | 20 nM | – | –
9 | CC[C@H](C)[C@H](NC(=O)C[C@@H]1O[C@@H]1[C@H](Cc1ccccc1)NC(=O)[C@H](CC(N)=O)NC(=O)c1ccc2ccccc2n1)C(=O)NOC [compound 28, N-{5-L-[[N-(2-quinolinecarbonyl)-L-asparaginyl]amino]-(4R,3S)-epoxy-6-phenylhexanoyl}-L-isoleucinyl-(N-methoxy)-amine] | > 100000 nM | 15 nM | 0.00333 s⁻¹ | 217000 M⁻¹ s⁻¹ | 600 nM | – | –
10 | CC[C@H](C)[C@H](NC(=O)C[C@@H]1O[C@@H]1[C@H](Cc1ccccc1)NC(=O)[C@@H](NC(=O)N(C)Cc1ccccn1)C(C)C)C(=O)OC [compound 35, N-{N-L-[[N,N-(2-pyridylmethyl)(methyl)-amino]carbonylvalinyl]amino-(4R,3S)-epoxy-6-phenyl-hexanoyl}-L-isoleucine methyl ester] | > 100000 nM | > 10000 nM | – | – | 1000 nM | – | –
11 | CC(C)[C@H](NC(=O)OCc1ccccc1)C(=O)N[C@@H](Cc1ccccc1)[C@H]1O[C@H]1CNC(=O)OC(C)(C)C [compound 82, 4S-[N^1-(t-butoxycarbonyl)amino]-[N^4-[(N-benzyloxycarbonyl-L-valinyl)amino]]-5-phenyl-(2S,3R)-(Z)-epoxypentane] | > 10000 nM | 450 nM | 0.0183 s⁻¹ | 40000 M⁻¹ s⁻¹ | 750 nM | – | –
12 | CC(C)[C@H](NC(=O)OCc1ccccc1)C(=O)N[C@@H](Cc1ccccc1)[C@H]1O[C@H]1CNC(=O)[C@H](CC(N)=O)NC(=O)OCc1ccccc1 [compound 76, 4S-[N^1-[(N-benzyloxycarbonyl-L-asparaginyl)amino]]-[N^4-[(N-benzyloxycarbonyl-L-valinyl)amino]]-5-phenyl-(2S,3R)-(Z)-epoxypentane] | > 100000 nM | 2000 nM | 0.000767 s⁻¹ | 383 M⁻¹ s⁻¹ | 1000 nM | – | –
13 | CC[C@H](C)[C@H](NC(=O)C[C@@H]1O[C@@H]1[C@H](Cc1ccccc1)NC(=O)[C@H](CC(N)=O)NC(=O)c1ccc2ccccc2n1)C(=O)N(C)C [compound 26] | > 100000 nM | > 10000 nM | – | – | 500 nM | – | –
